Laboratory results taken from US6054435A, “6-O-substituted macrolides having antibacterial activity” (priority 1999, dated 2000).
≈ marks a conversion by molar mass, not a printed value.

Experiments:
Assay in all cases: in vitro antibacterial activity (MIC), agar dilution
Type in all cases: cell-based
[1] = test system: Micrococcus luteus ATCC 9341; conditions: organism code OO; BHI agar, 35-37° C., 20 to 24 hours; unit assumed
Procedure, shortened: (§1)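 Agar dilution in BHI agar, twelve successive compound dilutions. Inoculum 1:100, or 1:10 for slow-growing strains (e.g. Streptococcus), replicator-spotted. Read by eye; MIC = lowest concentration with no growth, slight haze or sparsely isolated colonies relative to growth control.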

[2] = test system: Streptococcus Pneumonia GYR 1171; conditions: organism code YY; BHI agar, 35-37° C., 20 to 24 hours; unit assumed
Procedure, shortened: (§2)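 Endpoint: lowest concentration with no growth, slight haze or sparsely isolated colonies at the inoculum spot, judged against a compound-free BHI control. Strains were replicator-inoculated at 1:100 (1:10 for Streptococcus and other slow growers).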

[3] = test system: Micrococcus luteus ATCC 4698; conditions: organism code PP; BHI agar, 35-37° C., 20 to 24 hours; unit assumed
Procedure, shortened: as §1

[4] = test system: Mycobacterium smegmatis ATCC 114; conditions: organism code UU; BHI agar, 35-37° C., 20 to 24 hours; unit assumed
Procedure, shortened: as §2

[5] = test system: Staphylococcus aureus NCTC10649M; conditions: organism code EE; BHI agar, 35-37° C., 20 to 24 hours; unit assumed
Procedure, shortened: as §2

[6] = test system: Staphylococcus aureus CMX 553; conditions: organism code FF; BHI agar, 35-37° C., 20 to 24 hours; unit assumed
Procedure, shortened: as §2

Escherichia coli SS = conditions: organism code RR; BHI agar, 35-37° C., 20 to 24 hours; unit assumed
Procedure, shortened: as §2

Escherichia coli DC-2 = conditions: organism code SS; BHI agar, 35-37° C., 20 to 24 hours; unit assumed
Procedure, shortened: as §2

[7] = test system: Nocardia Asteroides ATCC9970; conditions: organism code VV; BHI agar, 35-37° C., 20 to 24 hours; unit assumed
Procedure, shortened: as §2

[8] = test system: Streptococcus Pneumonia ATCC6303; conditions: organism code XX; BHI agar, 35-37° C., 20 to 24 hours; unit assumed
Procedure, shortened: as §2

[9] = test system: Streptococcus pyogenes PIU 2548; conditions: organism code NN; BHI agar, 35-37° C., 20 to 24 hours; unit assumed
Procedure, shortened: as §2

[10] = test system: Streptococcus Pneumonia 5979; conditions: organism code ZZ; BHI agar, 35-37° C., 20 to 24 hours; unit assumed
Procedure, shortened: as §2

[11] = test system: Haemophilis Influenzae DILL AMP R; conditions: organism code WW; BHI agar, 35-37° C., 20 to 24 hours; unit assumed
Procedure, shortened: as §2

Escherichia coli JUHL = conditions: organism code QQ; BHI agar, 35-37° C., 20 to 24 hours; unit assumed
Procedure, shortened: as §2

[12] = test system: Staphylococcus aureus ATCC 6538P; conditions: organism code AA; BHI agar, 35-37° C., 20 to 24 hours; unit assumed
Procedure, shortened: as §2

[13] = test system: Streptococcus pyogenes 930; conditions: organism code MM; BHI agar, 35-37° C., 20 to 24 hours; unit assumed
Procedure, shortened: as §2

[14] = test system: Staphylococcus epidermidis 3519; conditions: organism code HH; BHI agar, 35-37° C., 20 to 24 hours; unit assumed
Procedure, shortened: as §2

[15] = test system: Streptococcus Pneumonia 5649; conditions: organism code ZZA; BHI agar, 35-37° C., 20 to 24 hours; unit assumed
Procedure, shortened: as §2

[16] = test system: Staphylococcus aureus 1775; conditions: organism code GG; BHI agar, 35-37° C., 20 to 24 hours; unit assumed
Procedure, shortened: as §2

[17] = test system: Staphylococcus aureus A5177; conditions: organism code BB; BHI agar, 35-37° C., 20 to 24 hours; unit assumed
Procedure, shortened: as §2

[18] = test system: Streptococcus bovis A-5169; conditions: organism code JJ; BHI agar, 35-37° C., 20 to 24 hours; unit assumed
Procedure, shortened: as §2

[19] = test system: Staphylococcus aureus A-5278; conditions: organism code CC; BHI agar, 35-37° C., 20 to 24 hours; unit assumed
Procedure, shortened: as §2

[20] = test system: Streptococcus pyogenes EES61; conditions: organism code LL; BHI agar, 35-37° C., 20 to 24 hours; unit assumed
Procedure, shortened: as §2

[21] = test system: Staphylococcus aureus CMX 642A; conditions: organism code DD; BHI agar, 35-37° C., 20 to 24 hours; unit assumed
Procedure, shortened: as §2

[22] = test system: Enterococcus faecium ATCC 8043; conditions: organism code II; BHI agar, 35-37° C., 20 to 24 hours; unit assumed
Procedure, shortened: as §2

[23] = test system: Streptococcus agalactiae CMX 508; conditions: organism code KK; BHI agar, 35-37° C., 20 to 24 hours; unit assumed
Procedure, shortened: as §2

Candida albicans CCH 442 = conditions: organism code TT; BHI agar, 35-37° C., 20 to 24 hours; unit assumed
Procedure, shortened: as §2

**Q.** `CC[C@H]1OC(=O)[C@H](C)C(=O)[C@H](C)[C@@H](O[C@@H]2O[C@H](C)C[C@H](N(C)C)[C@H]2O)[C@](C)(OC/C=C/c2ccc(-c3ccco3)s2)C[C@@H](C)C(=O)[C@H](C)[C@H]2NC(=O)O[C@@]21C` [Example 77] was tested. Which MIC [1] did it give?
**A.** Its MIC is 0.02 µg/mL (≈ 0.0254 µM).

**Q.** What about the MIC [2] of the same compound?
**A.** The MIC was ≤ 0.004 µg/mL.

**Q.** What about the MIC [3] of the same compound?
**A.** The MIC was 0.2 µg/mL (≈ 0.254 µM).

**Q.** What about the MIC [4] of the same compound?
**A.** The MIC was 0.78 µg/mL (≈ 0.991 µM).

**Q.** And the MIC [5]?
**A.** The MIC was 0.1 µg/mL (≈ 0.127 µM).

**Q.** And the MIC [6]?
**A.** Its MIC is 0.1 µg/mL (≈ 0.127 µM).

**Q.** What about the MIC (Escherichia coli SS) of the same compound?
**A.** Its MIC is 0.39 µg/mL (≈ 0.496 µM).

**Q.** What about the MIC (Escherichia coli DC-2) of the same compound?
**A.** Its MIC is 50 µg/mL (≈ 63.5 µM).

**Q.** What about the MIC [7] of the same compound?
**A.** The MIC was 0.2 µg/mL (≈ 0.254 µM).

**Q.** What about the MIC [8] of the same compound?
**A.** The MIC was ≤ 0.004 µg/mL.

**Q.** What about the MIC [9] of the same compound?
**A.** The MIC was 0.2 µg/mL (≈ 0.254 µM).

**Q.** And the MIC [10]?
**A.** Its MIC is 16 µg/mL (≈ 20.3 µM).

**Q.** And the MIC [11]?
**A.** The MIC was 8 µg/mL (≈ 10.2 µM).

**Q.** And the MIC (Escherichia coli JUHL)?
**A.** The MIC was 50 µg/mL (≈ 63.5 µM).

**Q.** What about the MIC [12] of the same compound?
**A.** Its MIC is 0.1 µg/mL (≈ 0.127 µM).

**Q.** And the MIC [13]?
**A.** Its MIC is 12.5 µg/mL (≈ 15.9 µM).

**Q.** And the MIC [14]?
**A.** The MIC was 0.1 µg/mL (≈ 0.127 µM).

**Q.** What about the MIC [15] of the same compound?
**A.** The MIC was 0.25 µg/mL (≈ 0.318 µM).

**Q.** And the MIC [16]?
**A.** Its MIC is 100 µg/mL (≈ 127 µM).

**Q.** What about the MIC [17] of the same compound?
**A.** The MIC was 0.1 µg/mL (≈ 0.127 µM).

**Q.** What about the MIC [18] of the same compound?
**A.** The MIC was 0.01 µg/mL (≈ 0.0127 µM).

**Q.** And the MIC [19]?
**A.** Its MIC is 100 µg/mL (≈ 127 µM).

**Q.** What about the MIC [20] of the same compound?
**A.** The MIC was 0.05 µg/mL (≈ 0.0635 µM).

**Q.** And the MIC [21]?
**A.** The MIC was 0.1 µg/mL (≈ 0.127 µM).

**Q.** What about the MIC [22] of the same compound?
**A.** The MIC was 0.05 µg/mL (≈ 0.0635 µM).

**Q.** And the MIC [23]?
**A.** Its MIC is 0.02 µg/mL (≈ 0.0254 µM).

**Q.** And the MIC (Candida albicans CCH 442)?
**A.** The MIC was > 100 µg/mL.
